Patent publication US20250136617A1 (The Regents of the University of Colorado, A Body Corporate, priority 2022, published 2025)
Where two headings read alike, the source gives them in different places.

Assays:
[1] = target: CXCR4 (Homo sapiens, UniProt P61073); test: β-arrestin recruitment, 384-well, Tango CXCR4-bla U2OS cells, normalized to SDF-1α; format: cell-based; parameters: host or cells: U2OS; conditions: for ß-arrestin recruitment Emax (%): normalized to maximal SDF-1α response; for Emax: U2OS, read-out: TANGO β-arrestin Emax (%)
Description: Tango™ CXCR4-bla U2OS Cells (Invitrogen; K1779) were used for (β-arrestin recruitment assays and maintained as a monolayer culture in McCoy's 5a (Corning; 10-050-CV) supplemented with 10% dialyzed Fetal Bovine Serum (Gibco; 26400-044), 0.1 mM MEM Non-essential amino acids solution, 25 mM HEPES solution (Corning; 25-060-CI), 1 mM Sodium Pyruvate (Gibco; 11360-070), 200 μg/mL Zeocin selection reagent (Gibco; R25001), 50 μg/mL Hygromycin B (Gibco, 10687010), and 100 μg/mL Geneticin (G418 Sulfate) (Gibco, 10131035). U2OS cells were subcultured twice weekly by 0.05% Trypsin-EDTA treatment (Corning; 25-051-CI) and passaged to continue exponential growth phase for cell signaling assays. All cell cultures were maintained in cell culture incubators at 37° C. with 5% CO2. CHO-K1 CXCR4 cells (DiscoverX, Fremont, CA, USA) were used for cAMP inhibition assays and maintained as a monolayer culture in DMEM/F12 (Corning; 10-091-CV) supplemented with 10% Fetal Bovine Serum (Corning; 35-011-CV) and 100IU penicillin, […] streptomycin sulfate (Corning; 30-002-CI) and […] G418 (Gibco; 101310350. Cells were subculture 2 times weekly by o.o5% Trypsin-EDTA treatment (Corning; 25-051-CI) and passaged to continue exponential growth phase for cell signaling assays. All cell cultures were maintained in cell culture incubators at 37° C. with 5% CO2.CEM-CCRF cells (ATCC CCL-119) were used in both the migration and calcium flux assays and were cultured in growth media consisting of RPMI 1640 (Corning; 10-040-CV) supplemented with 10% Fetal Bovine Serum (Corning; 35-011-CV), and 100 IU penicillin, […] streptomycin sulfate (Corning; 30-002-CI). Cells were maintained in suspension and sub-cultured twice weekly to maintain cell densities between 0.8×10^6 cells/mL and 2.5×10^6 cells/mL to maintain exponential growth phase. Cells were harvested for use in migration and calcium flux assays at 2.0×10^6 cells/mL to 2.5×10^6 cells/mL and resuspended in assay media to desired density for respective experiments.
Tango™ CXCR4-bla U2OS Cells were resuspended in assay media consisting of DMEM (Corning; Corning, NY) supplemented with 1% dialyzed Fetal bovine serum, 0.1 mM MEM Non-essential amino acids solution, 25 mM HEPES solution (Corning; Corning, NY), 1 mM Sodium Pyruvate and 100 IU penicillin, […] streptomycin sulfate (Corning; Corning, NY) at a density of 3.0×10^5 cells/ml. Assay media FreeStyle 293 expression Medium (Gibco; 12338018) was used for testing the thiadiazine scaffold CXCR4 agonists. Cells suspension was dispensed at 30 μl per well into assay plate and incubated overnight in a cell culture incubator at 37° C. with 5% CO2. […] Following overnight incubation, LiveBlazer FRET B/G Loading Kit (Invitrogen; K1095) working reagent was prepared according to supplier guidelines and 6 μl of solution was dispensed into each well; 8 μL of solution for testing the thiadiazine scaffold CXCR4 agonists. Assay plate was covered and incubated in a dark place for two hours and Fluorescence Intensity was measured using the BMG LABTECH CLARIOstar Plus (BMG LABTECH Inc., Cary, NC) according to the LiveBlazer FRET B/G Loading Kit excitation and emission measurement guidelines.
Results are expressed as mean±SD for 3 to 5 independent experiments. Statistically significant differences in gene expression between two groups were assessed by Student's T-test, ANOVA with an appropriate post hoc test was be used for multiple comparisons. P<0.05 was considered to be statistically significant. All concentration response curves were analyzed to determine EC50 and Emax using the following equation:
where Y is the normalized response (0-100%), X is the log of concentration of compound tested, and the Hill slope is equal to 1.0% and 100% activity are specific to each assay. […]

[2] = test system: CEM-CCRF human lymphoblast cells; test: Transwell migration assay in CEM-CCRF lymphoblasts; format: cell-based
Description: Thus, to confirm CXCR4 functional activity, UCUF-728 was evaluated in a 96 w transwell migration assay in CEM human lymphoblast cells.
CEM-CCRF (ATCC CCL-119) were suspended in RPMI 1640 (Corning; 10-040-CV) at 5.0×10^5 cells/mL and allowed to incubate in cell culture incubator at 37° C. with 5% CO2 for one hour. […] Plates were reassembled and placed in a cell culture incubator at 37° C. with 5% CO2 for three hours. After incubation, Multi-Screen plate was disassembled and 100 μl of solution was collected from compound receiver tray and transferred to 96 well luminescent plate (Thermo Scientific; 265302) and an equal volume of ATPLite Istep luminescence reagent (Perkin Elmer, Waltham, MA; 6016731) was added to each well. Luminescence was measured using the CLARIOstar Plus (BMG LABTECH Inc., Cary, NC).

[3] = normalized to SDF-1, read-out: TANGO β-arrestin EC50
[4] = normalized to SDF-1α, read-out: ß-arrestin recruitment EC50
[5] = Homo sapiens, read-out: Migration CEM EC50 (μM)

Sequence of CXCR4 (P61073 whole entry): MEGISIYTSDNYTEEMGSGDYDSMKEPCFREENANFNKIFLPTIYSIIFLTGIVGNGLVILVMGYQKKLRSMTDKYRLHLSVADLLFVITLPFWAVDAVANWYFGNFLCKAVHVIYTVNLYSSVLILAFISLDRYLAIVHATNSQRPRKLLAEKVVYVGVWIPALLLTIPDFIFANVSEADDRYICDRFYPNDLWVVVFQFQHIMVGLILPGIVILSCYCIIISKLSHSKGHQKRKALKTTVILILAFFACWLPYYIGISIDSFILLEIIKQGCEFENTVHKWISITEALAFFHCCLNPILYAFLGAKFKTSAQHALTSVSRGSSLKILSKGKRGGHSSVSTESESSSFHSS

| Compound | EC50 [1, 3] [µM] | Emax ([1]; normalized to SDF-1) [%] | also measured |
| --- | --- | --- | --- |
| COc1ccccc1-c1nnc2n1N=C(c1ccccc1)CS2 | > 80 |  |  |
| COc1ccccc1-c1nnc2n1N=C(c1ccc([N+](=O)[O-])cc1)CS2 |  |  | EC50 [1, 4]: > 80 µM |
| COc1ccc(C2=Nn3c(nnc3-c3ccccc3OC)SC2)cc1 [Entry 1] | < 5 |  | TANGO β-arrestin Emax (%) ([1]; normalized to SDF-1): B (35 < B < 70); EC50 [1, 4]: 0.054 µM; ß-arrestin recruitment Emax (%) [1]: 45% |
| CCOc1ccccc1-c1nnc2n1N=C(c1ccc(OC)cc1)CS2 [Entry 3] | < 5 | > 70 | Emax ([2]; Homo sapiens): 35 to 70%; EC50 [2, 5]: < 5 µM |
| CCCCOc1ccc(C2=Nn3c(nnc3-c3ccccc3OC)SC2)cc1 [Entry 5] | < 5 | < 35 | EC50 [2, 5]: > 10 µM |
| C=CCOc1ccc(C2=Nn3c(nnc3-c3ccccc3OCC)SC2)cc1 [Entry 6] | < 5 | > 70 | Migration CEM Emax (%) [2]: B (35 < B < 70); EC50 ([2]; read-out: Migration CEM EC50): < 5 µM |
| COc1ccccc1-c1nnc2n1N=C(c1ccc(C)cc1)CS2 [Entry 17] | < 5 | 35 to 70 |  |
| CCc1ccc(C2=Nn3c(nnc3-c3ccccc3OC)SC2)cc1 [Entry 18] | < 5 | 35 to 70 |  |
| CCOc1ccccc1-c1nnc2n1N=C(c1ccc(N)cc1)CS2 [Entry 26] | > 10 |  |  |
| CCOc1ccccc1-c1nnc2n1N=C(c1ccc(N3CCC3)cc1)CS2 [Entry 28] | < 5 | 35 to 70 |  |
| CCOc1ccccc1-c1nnc2n1N=C(c1ccc(NC(=O)C3CCCC3)cc1)CS2 [Entry 33] | > 10 |  |  |
| CCOc1ccccc1-c1nnc2n1N=C(c1ccc(NCC(=O)O)cc1)CS2 [Entry 40a] |  |  | Emax ([2]; Homo sapiens): 23%; EC50 [2, 5]: 0.32 µM |
| CCOc1ccccc1-c1nnc2n1N=C(c1ccc(NC3CCC3)cc1)CS2 [Entry 44] | < 5 | > 70 |  |
| c1ccc(C2=Nn3c(nnc3-c3ccccc3)SC2)cc1 [Entry 50] | > 80 |  |  |
| COc1ccc(C2=Nn3c(nnc3-c3ccccc3)SC2)cc1 [Entry 51] | 5 to 50 | 35 to 70 |  |
| COc1ccc(C2=Nn3c(nnc3-c3ccccc3OC)SC2)cc1 [Entry 55] | < 5 | 35 to 70 |  |
| CCOc1ccccc1-c1nnc2n1N=C(c1ccc(OC)c(OC)c1)CS2 [Entry 57] | < 5 | 35 to 70 |  |
| COc1cccc(-c2nnc3n2N=C(c2ccccc2)CS3)c1 [Entry 58] | > 80 |  |  |
| COc1ccc(-c2nnc3n2N=C(c2ccccc2)CS3)cc1 [Entry 59] | > 80 |  |  |
| COc1cc(-c2nnc3n2N=C(c2ccccc2)CS3)cc(OC)c1OC [Entry 61] | > 80 |  |  |
| COc1cccc(C2=Nn3c(nnc3-c3ccccc3OC)SC2)c1 [Entry 85] |  |  | EC50 [1, 4]: 10.7 µM; ß-arrestin recruitment Emax (%) [1]: 40% |
| CCOc1ccccc1-c1nnc2n1N=C(c1ccc(N3CCCC3)cc1)CS2 [compound 24] |  |  | Migration CEM Emax (%) [2]: A (A ≥ 70) |

Now from value to molecule, other results behind:

| EC50 [1, 3] [µM] | Emax ([1]; normalized to SDF-1) [%] | Compound | also measured |
| --- | --- | --- | --- |
| 5 to 50 |  | CCCCc1ccc(C2=Nn3c(nnc3-c3ccccc3OC)SC2)cc1 [Entry 19] | TANGO β-arrestin Emax (%) ([1]; normalized to SDF-1): C (C ≤ 35); EC50 [1, 4]: 14.1 µM; ß-arrestin recruitment Emax (%) [1]: 12% |
| 5 to 50 | > 70 | COc1ccccc1-c1nnc2n1N=C(c1ccc(-c3ccccc3)cc1)CS2 [Entry 20] |  |
| 5 to 50 | > 70 | COc1ccccc1-c1nnc2n1N=C(c1ccc(N3CCOCC3)cc1)CS2 [Entry 25] |  |
| > 80 |  | COc1ccc(C2=Nn3c(nnc3-c3ccccc3)SC2)cc1OC [Entry 52] |  |
| < 5 | 35 to 70 | COc1ccc(C2=Nn3c(nnc3-c3ccccc3OC)SC2)c(OC)c1 [Entry 54] |  |
| < 5 |  | COc1ccc(OC)c(-c2nnc3n2N=C(c2ccc(OC)c(OC)c2)CS3)c1 [Entry 56] | TANGO β-arrestin Emax (%) ([1]; normalized to SDF-1): B (35 < B < 70) |
| < 5 | 35 to 70 | COc1ccc(C2=Nn3c(nnc3-c3cccc(OC)c3)SC2)cc1 [Entry 60] |  |
| < 5 |  | COc1cc(-c2nnc3n2N=C(c2ccc(Br)cc2)CS3)cc(OC)c1OC [Entry 62] | TANGO β-arrestin Emax (%) ([1]; normalized to SDF-1): B (35 < B < 70) |
